Biological target: T1, PD-1/PD-L1 (Homo sapiens, UniProt Q9NZQ7)
T1 construct: Recombinant human PD-L1 protein (19-238) with a His-tag at the C-terminus; purchased AcroBiosystems PD1-H5229 (PD-L1); PD1-H5257 (PD-1)
Experiment: PD-1/PD-L1 homogenous time-resolved fluorescence (HTRF) binding assay
Settings: recombinant human PD-L1 (19-238) His-tag / human PD-1 (25-167) Fc tag
In short: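 HTRF binding of human PD-1 (25-167, Fc-tagged) at 3 nM and PD-L1 (19-238, His-tagged) at 10 nM, preincubated 40 min with inhibitor in PBS pH 7.4, 0.05% Tween-20, 0.1% BSA, 1% DMSO, 25°C. Eu anti-IgG (1 nM) and anti-His-APC (20 nM) added, 60 min; 665/620 nm ratio; IC50 from curve fit.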

T1 sequence (Q9NZQ7 19-238): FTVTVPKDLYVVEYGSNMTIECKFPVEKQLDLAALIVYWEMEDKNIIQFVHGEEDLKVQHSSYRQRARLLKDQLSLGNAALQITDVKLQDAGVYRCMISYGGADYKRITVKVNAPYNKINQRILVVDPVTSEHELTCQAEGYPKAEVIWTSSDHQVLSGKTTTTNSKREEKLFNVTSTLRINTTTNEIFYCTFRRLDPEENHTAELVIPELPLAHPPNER

| IC50 (class symbols) | IC50 (numeric values) | Structure (SMILES) |
| --- | --- | --- |
| < 25 nM |  | Cc1c(Nc2nccc3cc(CNCCO)cnc23)cccc1-c1cccc(Nc2nccc3cc(CNCC(F)(F)F)cnc23)c1C [Example 156, 2-(((8-((2,2′-dimethyl-3′-((3-(((2,2,2-trifluoroethyl)amino)methyl)-1,7-naphthyridin-8-yl)amino)-[1,1′-biphenyl]-3-yl)amino)-1,7-naphthyridin-3-yl)methyl)amino)ethan-1-ol] |
| < 25 nM |  | Cc1c(Nc2nccc3cc(CNCC(=O)O)cnc23)cccc1-c1cccc(Nc2nccc3cc(CNCC(=O)N(C)C)cnc23)c1C [Example 148, ((8-((3′-((3-(((2-(dimethylamino)-2-oxoethyl)amino)methyl)-1,7-naphthyridin-8-yl)amino)-2,2′-dimethyl-[1,1′-biphenyl]-3-yl)amino)-1,7-naphthyridin-3-yl)methyl)glycine] |
| < 25 nM |  | CC(=O)N1CCc2c(nc(C(=O)Nc3cccc(-c4cccc(NC(=O)c5ccc6c(n5)CCNC6)c4C)c3C)n2C)C1 [Example 183, N-(3′-(5-acetyl-1-methyl-4,5,6,7-tetrahydro-1H-imidazo[4,5-c]pyridine-2-carboxamido)-2,2′-dimethyl-[1,1′-biphenyl]-3-yl)-5,6,7,8-tetrahydro-1,6-naphthyridine-2-carboxamide] |
| < 25 nM |  | COB(CCCN1CCc2nc(C(=O)N3CCc4c(-c5cccc6c5CCN6C(=O)c5nc6c(s5)CN(CCCB(OC)OC)CC6)cccc43)sc2C1)OC [Example 122, tetramethyl((([4,4′-biindoline]-1,1′-dicarbonyl)bis(6,7-dihydrothiazolo[5,4-c]pyridine-2,5(4H)-diyl))bis(propane-3,1-diyl))diboronate] |
| < 25 nM |  | Cc1c(NC(=O)c2nc3c(s2)CN(CCCN2CCOCC2)CC3)cccc1-c1cccc(NC(=O)c2nc3c(s2)CN(CCCN2CCOCC2)CC3)c1C [Example 81, N,N′-(2,2′-dimethyl-[1,1′-biphenyl]-3,3′-diyl)bis(5-(3-morpholinopropyl)-4,5,6,7-tetrahydrothiazolo[5,4-c]pyridine-2-carboxamide)] |
| < 25 nM |  | Cc1c(Nc2nccc3cc(CN4CC(O)C4)cnc23)cccc1-c1cccc(Nc2nccc3cc(CN4CC(O)C4)cnc23)c1C [Example 150, 1,1′-((((2,2′-dimethyl-[1,1′-biphenyl]-3,3′-diyl)bis(azanediyl))bis(1,7-naphthyridine-8,3-diyl))bis(methylene))bis(azetidin-3-ol)] |
| 25 to 100 nM |  | Cc1c(NC(=O)c2nc3c(s2)CN(C(C)C)CC3)cccc1-c1cccc(NC(=O)c2nc3c(s2)CN(C(C)C)CC3)c1C [Example 77, N,N′-(2,2′-dimethyl-[1,1′-biphenyl]-3,3′-diyl)bis(5-isopropyl-4,5,6,7-tetrahydrothiazolo[5,4-c]pyridine-2-carboxamide)] |
| < 25 nM |  | NC(=O)CN1CCc2nc(C(=O)N3CCc4c(-c5cccc6c5CCN6C(=O)c5nc6c(s5)CN(CC(=O)O)CC6)cccc43)sc2C1 [Example 107, 2-(2-(1′-(5-(2-amino-2-oxoethyl)-4,5,6,7-tetrahydrothiazolo[5,4-c]pyridine-2-carbonyl)-[4,4′-biindoline]-1-carbonyl)-6,7-dihydrothiazolo[5,4-c]pyridin-5(4H)-yl)acetic acid] |
| < 25 nM |  | Cc1c(NC(=O)c2nc3c(s2)CN(CCCC(=O)O)CC3)cccc1-c1cccc(NC(=O)c2nc3c(s2)CN(CCCC(=O)O)CC3)c1C [Example 78, 4,4′-((((2,2′-dimethyl-[1,1′-biphenyl]-3,3′-diyl)bis(azanediyl))bis(carbonyl))bis(6,7-dihydrothiazolo[5,4-c]pyridine-2,5(4H)-diyl))dibutyric acid] |
| < 25 nM |  | O=C(c1nc2c(s1)CN(C1COC1)CC2)N1CCc2c(-c3cccc4c3CCN4C(=O)c3nc4c(s3)CN(C3COC3)CC4)cccc21 [Example 88, [4,4′-biindoline]-1,1′-diylbis((5-(oxetan-3-yl)-4,5,6,7-tetrahydrothiazolo[5,4-c]pyridin-2-yl)methanone)] |
| < 25 nM |  | Cc1c(NC(=O)c2ncc3c(n2)CCNC3)cccc1-c1cccc(NC(=O)c2ncc3c(n2)CCNC3)c1C [Example 188, N,N′-(2,2′-dimethyl-[1,1′-biphenyl]-3,3′-diyl)bis(5,6,7,8-tetrahydropyrido[4,3-d]pyrimidine-2-carboxamide)] |
| < 25 nM |  | COC(=O)N[C@H](C(=O)N1CCc2nc(C(=O)N3CCc4c(-c5cccc6c5CCN6C(=O)c5ccc6c(n5)CCN(C(=O)[C@@H](NC(=O)OC)C(C)C)C6)cccc43)ccc2C1)C(C)C [Example 168, dimethyl ((2S,2'S)-(([4,4′-biindoline]-1,1′-dicarbonyl)bis(7,8-dihydro-1,6-naphthyridine-2,6(5H)-diyl))bis(3-methyl-1-oxobutane-1,2-diyl))dicarbamate] |
| < 25 nM |  | Cc1c(Nc2nccc3cc(CNC4([C@H](C)O)CC4)cnc23)cccc1-c1cccc(Nc2nccc3cc(CNC4([C@H](C)O)CC4)cnc23)c1C [Example 157, (1S,1'S)-1,1′-((((((2,2′-dimethyl-[1,1′-biphenyl]-3,3′-diyl)bis(azanediyl))bis(1,7-naphthyridine-8,3-diyl))bis(methylene))bis(azanediyl))bis(cyclopropane-1,1-diyl))bis(ethan-1-ol)] |
| < 25 nM |  | Cc1c(NC(=O)c2ccc3c(n2)CCNC3)cccc1-c1cccc(NC(=O)c2ccc3c(n2)CCNC3)c1C [Example 167, N,N′-(2,2′-dimethyl-[1,1′-biphenyl]-3,3′-diyl)bis(5,6,7,8-tetrahydro-1,6-naphthyridine-2-carboxamide)] |

The next lines start with the compound.

| Structure (SMILES) | IC50 (class symbols) | IC50 (numeric values) |
| --- | --- | --- |
| Cc1c(NC(=O)c2cc3c(s2)CNCC3)cccc1-c1cccc(NC(=O)c2cc3c(s2)CNCC3)c1C [Example 32, N,N′-(2,2′-dimethyl-[1,1′-biphenyl]-3,3′-diyl)bis(4,5,6,7-tetrahydrothieno[2,3-c]pyridine-2-carboxamide)] |  | 18.1 nM |
| Cc1c(-c2cccc(N(C)Cc3nc4c(s3)CNCC4)c2C)cccc1N(C)Cc1nc2c(s1)CNCC2 [Example 24, N3,N3′,2,2′-tetramethyl-N3,N3′-bis((4,5,6,7-tetrahydrothiazolo[5,4-c]pyridin-2-yl)methyl)-[1,1′-biphenyl]-3,3′-diamine] | 100 to 200 nM |  |
| Cc1nc(C(=O)Nc2cccc(-c3cccc(NC(=O)c4nc(C)c(CN5CCCC[C@H]5C(=O)O)s4)c3C)c2C)sc1CN1CCCC[C@H]1C(=O)O [Example 52, (2S,2'S)-1,1′-(2,2′-(2,2′-dimethylbiphenyl-3,3′-diyl)bis(azanediyl)bis(oxomethylene)bis(4-methylthiazole-5,2-diyl))bis(methylene)dipiperidine-2-carboxylic acid] | < 25 nM |  |
| CC(C)[C@H](NCc1cnc(C(=O)Nc2cccc(-c3cccc(NC(=O)c4ncc(CN[C@H](C(=O)O)C(C)C)s4)c3Cl)c2Cl)s1)C(=O)O [Example 69, ((2-((3′-(5-((((S)-1-carboxy-2-methylpropyl)amino)methyl)thiazole-2-carboxamido)-2,2′-dichloro-[1,1′-biphenyl]-3-yl)carbamoyl)thiazol-5-yl)methyl)-L-valine] | < 25 nM |  |
| Cc1c(-c2cccc(N(C)C(=O)c3cc4c(s3)CCNC4)c2C)cccc1N(C)C(=O)c1cn2c(n1)CNCC2 [Example 34, N-(2,2′-dimethyl-3′-(N-methyl-5,6,7,8-tetrahydroimidazo[1,2-a]pyrazine-2-carboxamido)-[1,1′-biphenyl]-3-yl)-N-methyl-4,5,6,7-tetrahydrothieno[3,2-c]pyridine-2-carboxamide] | < 25 nM |  |
| Cc1c(NC(=O)c2nnc([C@H](C)N3CCCC[C@H]3C(=O)O)o2)cccc1-c1cccc(NC(=O)c2nnc([C@H](C)N3CCCC[C@H]3C(=O)O)o2)c1C [Example 16, (2S,2'S)-1,1′-((1S,1'S)-((((2,2′-dimethyl-[1,1′-biphenyl]-3,3′-diyl)bis(azanediyl))bis(carbonyl))bis(1,3,4-oxadiazole-5,2-diyl))bis(ethane-1,1-diyl))bis(piperidine-2-carboxylic acid)] | < 25 nM |  |
| Cc1nc(C(=O)N2CCc3c(-c4cccc5c4CCN5C(=O)c4nc(C)c(CN5CCCC[C@H]5C(=O)O)s4)cccc32)sc1CN1CCCC[C@H]1C(=O)O [Example 56, (2S,2'S)-1,1′-(2,2′-(4,4′-biindoline-1,1′-diylbis(oxomethylene))bis(4-methylthiazole-5,2-diyl))bis(methylene)dipiperidine-2-carboxylic acid] | < 25 nM |  |
| Cc1c(NC(=O)c2nnc([C@@H]3CCCN3)s2)cccc1-c1cccc(NC(=O)c2nnc([C@@H]3CCCN3)s2)c1C [Example 3, N,N′-(2,2′-dimethyl-[1,1′-biphenyl]-3,3′-diyl)bis(5-((S)-pyrrolidin-2-yl)-1,3,4-thiadiazole-2-carboxamide)] | < 25 nM |  |
| Cc1c(NC(=O)c2nnc(CNC(=N)N)s2)cccc1-c1cccc(NC(=O)c2nnc(CNC(=N)N)s2)c1C [Example 37, N,N′-(2,2′-dimethyl-[1,1′-biphenyl]-3,3′-diyl)bis(5-(guanidinomethyl)-1,3,4-thiadiazole-2-carboxamide)] | < 25 nM |  |
| Cc1c(-c2cccc(N(C)C(=O)c3nc4ccc(N)cc4s3)c2C)cccc1N(C)C(=O)c1nc2c(s1)CNCC2 [Example 21, N-(3′-(6-amino-N-methylbenzo[d]thiazole-2-carboxamido)-2,2′-dimethyl-[1,1′-biphenyl]-3-yl)-N-methyl-4,5,6,7-tetrahydrothiazolo[5,4-c]pyridine-2-carboxamide] | 100 to 200 nM |  |
| Cc1nc(C(=O)Nc2cccc(-c3cccc4c3CCN4C(=O)c3nc(C)c(CN4CCCC[C@H]4C(=O)O)s3)c2Cl)sc1CN1CCCC[C@H]1C(=O)O [Example 60, (S)-1-((2-(3-(1-(5-(((S)-2-carboxypiperidin-1-yl)methyl)-4-methylthiazole-2-carbonyl)indolin-4-yl)-2-chlorophenylcarbamoyl)-4-methylthiazol-5-yl)methyl)piperidine-2-carboxylic acid] | < 25 nM |  |

Source: US20210040118A1, “IMMUNOMODULATORS, COMPOSITIONS AND METHODS THEREOF” (BETTA PHARMACEUTICALS CO., LTD, priority 2018, published 2021)
